T/C data for 13 molecules are collected here from PubChem BioAssay AID248 (DTP/NCI, 2004).

Each structure is given as a SMILES string. Several values for one entry are separate records, joined by “and”; a condition that tells them apart may be missing. Identical values can stand only once. Inconclusive results and toxic doses are left out.

In the experiment the test system is L1210 leukemia ip in BDF1 mice, survival T/C. Description: NCI In Vivo Anticancer Drug Screen. Data for tumor model L1210 Leukemia (intraperitoneal) in B6D2F1 (BDF1) mice. The following applies: endpoint: mean survival time, higher = longer survival. The procedure, abridged:
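Read-out is survival time, reported as the treated-group measurement over the vehicle-control measurement.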

[1] abbreviates: dose: 50.0 mg/kg/injection, schedule: Q01DX009 (ip), vehicle: saline with Tween-80.
[2] abbreviates: dose: 200.0 mg/kg/injection, schedule: Q01DX001 (ip), vehicle: saline.
Where [3] appears, read: dose: 200.0 mg/kg/injection, schedule: Q01DX009 (ip), vehicle: saline with Tween-80.
[4] abbreviates: dose: 200.0 mg/kg/injection, schedule: Q04DX003 (ip), vehicle: saline.
The mark [5] stands for this setting: dose: 75.0 mg/kg/injection, schedule: Q01DX009 (ip), vehicle: Klucel (hydroxypropylcellulose) (HPC).
Where [6] appears, read: dose: 150.0 mg/kg/injection, schedule: Q01DX009 (ip), vehicle: Klucel (hydroxypropylcellulose) (HPC).
Where [7] appears, read: dose: 100.0 mg/kg/injection, schedule: Q04DX003 (ip), vehicle: saline with Tween-80.
The mark [8] stands for this setting: dose: 200.0 mg/kg/injection, schedule: Q04DX003 (ip), vehicle: saline with Tween-80.
The mark [9] stands for this setting: dose: 400.0 mg/kg/injection, schedule: Q04DX003 (ip), vehicle: saline with Tween-80.
The mark [10] stands for this setting: dose: 100.0 mg/kg/injection, schedule: Q01DX009 (ip), vehicle: saline with Tween-80.

As to `OC1C(Br)CC(Br)C1O` (stereo not drawn), the T/C was 97 % of control (dose: 100.0 mg/kg/injection, schedule: Q04DX002 (ip), vehicle: saline with Tween-80); 93 % of control (dose: 200.0 mg/kg/injection, schedule: Q04DX002 (ip), vehicle: saline with Tween-80); 101 % of control (dose: 400.0 mg/kg/injection, schedule: Q04DX002 (ip), vehicle: saline with Tween-80).
`CNS(=O)(=O)c1ncnc2nc[nH]c12`: the T/C (dose: 3.0 mg/kg/injection, schedule: Q01DX Z (ip), vehicle: carboxymethylcellulose (CMC)) is 113 % of control; the T/C (dose: 6.0 mg/kg/injection, schedule: Q01DX Z (ip), vehicle: carboxymethylcellulose (CMC)) is 115 % of control; the T/C (dose: 12.0 mg/kg/injection, schedule: Q01DX Z (ip), vehicle: carboxymethylcellulose (CMC)) is 119 % of control; the T/C (dose: 22.0 mg/kg/injection, schedule: Q01DX Z (ip), vehicle: carboxymethylcellulose (CMC)) is 100 % of control; the T/C (dose: 25.0 mg/kg/injection, schedule: Q01DX Z (ip), vehicle: carboxymethylcellulose (CMC)) was 117 % of control; the T/C (dose: 33.0 mg/kg/injection, schedule: Q01DX Z (ip), vehicle: carboxymethylcellulose (CMC)) was 100 % of control. The T/C by setting is: under setting [1], 115 % of control; (dose: 50.0 mg/kg/injection, schedule: Q01DX Z (ip), vehicle: carboxymethylcellulose (CMC)) 121 % of control; (dose: 75.0 mg/kg/injection, schedule: Q01DX Z (ip), vehicle: carboxymethylcellulose (CMC)) 121 % of control; (dose: 100.0 mg/kg/injection, schedule: Q01DX001 (ip), vehicle: acetone) 100 % of control; (dose: 132.0 mg/kg/injection, schedule: Q01DX001 (ip), vehicle: saline) 112 % of control and 88 % of control; (dose: 132.0 mg/kg/injection, schedule: Q01DX009 (ip), vehicle: saline with Tween-80) 112 % of control. Besides, the T/C is 110 % of control (dose: 132.0 mg/kg/injection, schedule: Q01DX009 (ip), vehicle: saline); 121 % of control (dose: 132.0 mg/kg/injection, schedule: Q04DX003 (ip), vehicle: saline); 182 % of control (dose: 200.0 mg/kg/injection, schedule: Q01DX001 (ip), vehicle: acetone); 103 % of control and 108 % of control under setting [2]; 162 % of control under setting [3]; 122 % of control under setting [4]. Moreover, the T/C (dose: 300.0 mg/kg/injection, schedule: Q01DX001 (ip), vehicle: saline) was 101 % of control and 103 % of control; the T/C (dose: 300.0 mg/kg/injection, schedule: Q01DX009 (ip), vehicle: saline) was 117 % of control.
Take `c1ccc(CCNc2ccc(NCCc3ccccc3)cc2)cc1`: the T/C (dose: 75.0 mg/kg/injection, schedule: Q01DX001 (ip), vehicle: Klucel (hydroxypropylcellulose) (HPC)) was 92 % of control; the T/C under setting [5] was 97 % of control; the T/C (dose: 150.0 mg/kg/injection, schedule: Q01DX001 (ip), vehicle: Klucel (hydroxypropylcellulose) (HPC)) was 106 % of control; the T/C under setting [6] was 100 % of control; the T/C (dose: 300.0 mg/kg/injection, schedule: Q01DX001 (ip), vehicle: Klucel (hydroxypropylcellulose) (HPC)) is 97 % of control; the T/C (dose: 300.0 mg/kg/injection, schedule: Q01DX009 (ip), vehicle: Klucel (hydroxypropylcellulose) (HPC)) is 106 % of control.
With `CC(=O)NC1CONC1=O` (stereo not drawn), the T/C by setting is: under setting [7], 98 % of control; under setting [8], 98 % of control; under setting [9], 94 % of control.
Regarding `CCCCC[CH2][Sn]([I])([CH2]C)[CH2]C`, the T/C runs as follows: (dose: 1.56 mg/kg/injection, schedule: Q01DX009 (ip), vehicle: saline) 95 % of control; (dose: 3.13 mg/kg/injection, schedule: Q01DX009 (ip), vehicle: saline) 90 % of control.
`Nc1nc(N)c2c(n1)Nc1ccc(Cl)nc1S2`: the T/C is, setting by setting: under setting [5], 93 % of control; under setting [6], 95 % of control.
For `C=C1C2C3CCC(C3)C2C(O)C2C3CCC(C3)C12` (stereo not drawn), the T/C was 96 % of control under setting [1], 93 % of control under setting [10] and 93 % of control under setting [3].
In the case of `C[n+]1ccc(NC(=O)c2ccc(NC(=O)c3ccc(C(=O)Nc4ccc(C(=O)Nc5cc[n+](C)cc5)cc4)c(N)c3)cc2)cc1`, the T/C (dose: 8.1 mg/kg/injection, schedule: Q01DX Z (oral), vehicle: water) is 97 % of control; the T/C (dose: 10.0 mg/kg/injection, schedule: Q01DX Z (ip), vehicle: water) was 123 % of control; the T/C (dose: 12.5 mg/kg/injection, schedule: Q01DX Z (ip), vehicle: water) is 124 % of control; the T/C (dose: 16.3 mg/kg/injection, schedule: Q01DX Z (oral), vehicle: water) is 112 % of control; the T/C (dose: 20.0 mg/kg/injection, schedule: Q01DX Z (ip), vehicle: water) was 162 % of control; the T/C (dose: 25.0 mg/kg/injection, schedule: Q01DX Z (ip), vehicle: water) is 150 % of control. For the same molecule, the T/C (dose: 32.5 mg/kg/injection, schedule: Q01DX Z (oral), vehicle: water) is 101 % of control; the T/C (dose: 40.0 mg/kg/injection, schedule: Q01DX Z (ip), vehicle: water) is 91 % of control; the T/C (dose: 50.0 mg/kg/injection, schedule: Q01DX Z (ip), vehicle: water) is 120 % of control; the T/C (dose: 62.0 mg/kg/injection, schedule: Q01DX Z (ip), vehicle: carboxymethylcellulose (CMC)) is 118 % of control; the T/C (dose: 65.0 mg/kg/injection, schedule: Q01DX Z (oral), vehicle: water) was 105 % of control.
With `Cc1coc(NS(=O)(=O)c2ccc(N=Nc3c(N)nc(N)[nH]c3=O)cc2)c1C`, the T/C runs as follows: (dose: 100.0 mg/kg/injection, schedule: Q01DX001 (ip), vehicle: saline) 109 % of control; under setting [2], 102 % of control; (dose: 400.0 mg/kg/injection, schedule: Q01DX001 (ip), vehicle: saline) 105 % of control.
With `CCCCNC(=O)CS(=O)(=O)c1ccc(Cl)cc1`, the T/C by setting is: under setting [7], 94 % of control; under setting [8], 100 % of control; under setting [9], 94 % of control.
Regarding `C/C(=N\N1CCCCC1)c1ccc(NC(=O)C(Cl)Cl)cc1`, the T/C runs as follows: under setting [10], 106 % of control; under setting [3], 97 % of control; (dose: 400.0 mg/kg/injection, schedule: Q01DX009 (ip), vehicle: saline with Tween-80) 89 % of control.
Regarding `CC(C)(C)N1CC(C(O)c2ccccc2)C1c1ccccc1` (stereo not drawn), the T/C was 98 % of control (dose: 100.0 mg/kg/injection, schedule: Q04DX003 (ip), vehicle: Klucel (hydroxypropylcellulose) (HPC)) and 95 % of control (dose: 200.0 mg/kg/injection, schedule: Q04DX003 (ip), vehicle: Klucel (hydroxypropylcellulose) (HPC)).
For `CC1N(C)CCC1(C)CN1c2ccccc2Sc2ccccc21` (stereo not drawn), the T/C was 108 % of control (dose: 100.0 mg/kg/injection, schedule: Q04DX003 (ip), vehicle: saline) and 102 % of control under setting [4].
